Experimental data published in patent publication US20250360111A1, “COMPOSITIONS OF AGPAT4 INHIBITORS AND METHODS OF USING THEREOF TO TREAT CANCER” (The University of Hong Kong, priority 2024, published 2025).
Read-outs that look alike come from different tables or passages of the source.

Legend:
HCC cells (Huh7) = assay: Rescue and PA addition experiments: migration, invasion, limiting dilution spheroid formation, western blot; format: cell-based, human; details: exogenous PA added to HCC cells
Description: Cells at limited dilutions were cultured in 100 μL serum-free DM E M/F12 medium (Invitrogen) supplemented with 20 ng/mL human recombinant epidermal growth factor (Sigma-Aldrich), 10 ng/mL human recombinant basic fibroblast growth factor (Sigma-Aldrich), […] (Sigma-Aldrich), B27 (1:50; Invitrogen), 500 U/mL penicillin, […] (Invitrogen), and 0.25% methylcellulose (Sigma-Aldrich). Cells were cultured in suspension in polyHEMA-coated 96-well plates. The cells were replenished with 30 μL of the supplemented medium every second day. The wells were monitored for sphere formation for 7-10 days. The tumor-initiating cell frequency was calculated using extreme limiting dilution analysis.
Cells were lysed in RIPA buffer (Cell Signalling Technology) containing a complete protease inhibitor cocktail (Roche) and PMSF (Sigma-Aldrich). Protein lysates were quantified and resolved on an SDS-PAGE gel, transferred onto a PV DF membrane (Pall), immunoblotted with a primary antibody, and incubated with a secondary antibody. The antibody signal was detected using the A mersham ECL Select Western Blotting Detection Reagent (GE Healthcare). […]

AGPAT4 = target: T1, AGPAT4 (Homo sapiens, UniProt Q9NRZ5, C228A); assay: Competitive gel-based ABPP in live cells with CL26-alkyne probe; format: cell-based; details: Huh7 cells, AGPAT4 C228A mutation
T1 construct: The open reading frame (ORF) encoding the mRNA of AGPAT4 was cloned into the pDONR-221 donor vector; expressed in transfected cells; host or cells: Huh7
T1 sequence (Q9NRZ5 1-378 C228A): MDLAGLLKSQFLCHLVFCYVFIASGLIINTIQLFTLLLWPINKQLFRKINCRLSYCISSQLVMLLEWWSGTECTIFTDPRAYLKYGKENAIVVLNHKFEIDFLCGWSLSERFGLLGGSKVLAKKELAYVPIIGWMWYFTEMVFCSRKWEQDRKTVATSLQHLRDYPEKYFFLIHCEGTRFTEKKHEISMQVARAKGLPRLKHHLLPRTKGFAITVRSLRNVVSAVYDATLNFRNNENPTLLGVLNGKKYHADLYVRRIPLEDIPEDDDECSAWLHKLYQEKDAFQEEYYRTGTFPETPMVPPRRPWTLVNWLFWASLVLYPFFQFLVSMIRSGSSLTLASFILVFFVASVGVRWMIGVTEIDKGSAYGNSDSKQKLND
Description: An in-gel fluorescence assay was performed to investigate the protein targets of CL26. Huh7 cells overexpressing AGPAT4 or cysteine mutants were pre-treated with CL26 at the indicated concentrations for 2 h, followed by CL26-alkyne (1 μM) treatment for another 2 h. Cells were harvested in RIPA buffer supplemented with protease and phosphatase inhibitors (Thermo Fisher Scientific #A32961). The proteins were precipitated by incubation with 6× volume of pre-chilled acetone at −20° C. overnight. Proteins were pelleted by centrifugation at 5000 g for 10 min and resuspended in PBS. The protein content was measured using the BCA assay and normalized to 2 mg/mL. Cell lysates (50 μL) were labelled with azide-fluor 545 by click reaction (final reaction mixture: azide-fluor 545 (25 μM), copper(II) sulfate (1 mM), TBTA (100 μM), and freshly prepared TCEP (1 mM)) at room temperature with constant agitation. After incubation for 1 h, the reaction was quenched with the sampling buffer and boiled at 90° C. for 5 min. Samples were subjected to SDS-PAGE, in-gel fluorescence was captured using ChemiDoc MP (Bio-Rad), and Coomassie Blue staining was performed. Similarly, immunoblotting was used to investigate the protein targets of CL26. Huh7 cells stably transfected with FLAG-AGPAT4 were pre-treated with either the solvent control or CL26 at the indicated concentrations for 2 h, followed by CL26-alkyne (10 μM) treatment for another 2 h. Cells were harvested, and lysates were prepared as described above unless specified. Anti-FLAG M 2 affinity beads were added in FLAG-tag pull-down experiments. After 4 h of incubation at 4° C., the beads were washed with TBS-T and resuspended in TBS-T. Sampling buffer was added and the samples were boiled for protein elution. The samples were subjected to SDS-PAG E and imaged for fluorescence signals before western blot analysis. In the probe pull-down experiment, 1 mL of lysate was labelled with desthiobiotin (DTB)-azide by a click reaction (final reaction mixture: copper(II) sulfate (1 mM), TBTA (100 μM), DTB-PEG-azide (100 μM), and freshly prepared TCEP (1 mM)). […]

[1] = system: AGPAT LPAAT family members (AGPAT1, 2, 3, 4 and 5); assay: Isoform specificity: streptavidin pulldown and immunoblotting of CL26-alkyne-bound proteins; format: cell-based, human; details: Huh7 cells, DTB-PEG-azide, streptavidin pulldown
Description: An in-gel fluorescence assay was performed to investigate the protein targets of CL26. Huh7 cells overexpressing AGPAT4 or cysteine mutants were pre-treated with CL26 at the indicated concentrations for 2 h, followed by CL26-alkyne (1 μM) treatment for another 2 h. Cells were harvested in RIPA buffer supplemented with protease and phosphatase inhibitors (Thermo Fisher Scientific #A32961). The proteins were precipitated by incubation with 6× volume of pre-chilled acetone at −20° C. overnight. Proteins were pelleted by centrifugation at 5000 g for 10 min and resuspended in PBS. The protein content was measured using the BCA assay and normalized to 2 mg/mL. Cell lysates (50 μL) were labelled with azide-fluor 545 by click reaction (final reaction mixture: azide-fluor 545 (25 μM), copper(II) sulfate (1 mM), TBTA (100 μM), and freshly prepared TCEP (1 mM)) at room temperature with constant agitation. After incubation for 1 h, the reaction was quenched with the sampling buffer and boiled at 90° C. for 5 min. Samples were subjected to SDS-PAGE, in-gel fluorescence was captured using ChemiDoc MP (Bio-Rad), and Coomassie Blue staining was performed. Similarly, immunoblotting was used to investigate the protein targets of CL26. […] The samples were subjected to SDS-PAG E and imaged for fluorescence signals before western blot analysis. […]

advanced HCC = details: advanced unresectable HCC, cited from earlier work
HCC [2] = details: Asian study; cited from earlier work
HCC [3] = details: cited from earlier work
HCC [4] = details: cited from earlier work; remark: listed apart in the source
NRAS+AKT-driven HCC = assay: NRAS+AKT HTVI HCC mouse model, AAV8-shAgpat4 and sorafenib; format: in vivo, C57BL/6 mice; details: sorafenib alone, control (NTC) group
Description: Six- to eight-week-old male wildtype C57BL/6 mice (Jackson Laboratory) were used in this study. HTVI procedure was carried out as previously described (41, 42). Briefly, 20 μg of plasmids encoding human AKT1 (myristylated AKT1 or myr-AKT1) and human neuroblastoma Ras viral oncogene homolog (N-RasV12) along with sleeping beauty (SB) transposase at a ratio of 25:1 was diluted in 2 ml of saline (0.9% NaCl), filtered through a 0.22 μm filter and injected into the lateral tail vein of C57BL/6 mice in 5-7 s.
Four weeks after hydrodynamic tail vein injection of proto-oncogenes and SB transposase, the mice were separated into two groups and administered 1×10^11 transducing units of AAV8 virus encoding either shNTC or shAgpat4 in 100 μL PBS via tail vein injection. At 5.5 weeks, mice were administered another dose of the shNTC or shAgpat4 AAV8 virus. Mouse shNTC and mouse shAgpat4 target sequences were cloned into the LV3 vector: 5′-[…] TTTG-3′ (SEQ ID NO:1) and 5′-[…] […]-3′ (SEQ ID NO:2), respectively.
Sorafenib (30 mg/kg/day, delivered orally daily) administration began at 2-3 weeks post HTVI injection, at which point tumors started to develop. Sorafenib treatment lasted for 2.5 weeks, when tumors became non-responsive to the treatment (21). […] Tumor-bearing mice were euthanized at the humane endpoint.

MHCC97L cells = assay: Orthotopic metastasis model, MHCC97L cells with AGPAT4 shRNA; format: in vivo, BALB/c nude mice; details: MHCC97L cells injected intrahepatically, n=7 per group
Description: Metastasis was assessed by orthotopic injection into the liver to observe extrahepatic metastasis to the lungs. […] Six to eight weeks after implantation, mice were administered 100 mg/kg D-luciferin (Gold Biotechnology) via peritoneal injection 5 min before bioluminescence imaging (IV IS 100 Imaging System, Xenogen). The livers and lungs were harvested for ex vivo imaging and histological analyses. The metastatic nodules in the lungs were counted.

18:1 phosphatidic acid [PA]
self-renewal, migration and invasion capacities (HCC cells (Huh7)): markedly enhanced the self-renewal, migration, and invasion capacities of HCC cells

C#CCCCN(Cc1ccc(-c2nc3ccccc3s2)o1)C(=O)CCl [CL26-alkyne]
CL26-alkyne binding to AGPAT4 cysteine mutant (fluorescence signal) (AGPAT4): complete abolishment of the fluorescence signal | specificity for AGPAT4 over other AGPAT LPAAT family members [1]: AGAPT4 was the only protein bound

CO[C@H]1C[C@@H]2CC[C@@H](C)[C@@](O)(O2)C(=O)C(=O)N2CCCC[C@H]2C(=O)O[C@H]([C@H](C)C[C@@H]2CC[C@@H](OCCO)[C@H](OC)C2)CC(=O)[C@H](C)/C=C(\C)[C@@H](O)[C@@H](OC)C(=O)[C@H](C)C[C@H](C)/C=C/C=C/C=C/1C [everolimus]
median progression free survival (advanced HCC; 28 patients): 3.8 months | overall survival (advanced HCC): 8.4 months

CNC(=O)c1cc(Oc2ccc(NC(=O)Nc3ccc(Cl)c(C(F)(F)F)c3)cc2)ccn1 [sorafenib]
median overall survival (HCC [2]): 6.5 months | time to radiological progression under treatment (HCC [3]; HCC): 4-5 months | expansion of patient median survival (HCC [3]; first-line treatment of HCC): approximately 3 months | median overall survival (HCC [4]; SHARP trial): 10.7 months | tolerability (HCC [4]; phase III trials): generally well tolerated | Agpat4 and p-mTOR expression in tumors (NRAS+AKT-driven HCC): increase in Agpat4 and p-mTOR expression

sh82: shRNA clone targeting human AGPAT4, clone ID NM_020133.3 (guide CCGGAUGAUUGGUGUGACGGAAAUUCUCGAGAAUUUCCGUCACACCAAUCAUUUUUUG)
tumors developing extrahepatic metastases in the lung (MHCC97L cells): 0 | tumors formed in the liver (MHCC97L cells): 5 of 7

sh83: second independent shRNA clone targeting human AGPAT4, printed sh83 in b403 (guide CCGGGUGAUCAUAGAAAGGGUAUUUCUCGAGAAAUACCCUUUCUAUGAUCACUUUUUG)
tumors developing extrahepatic metastases in the lung (MHCC97L cells): 0 | tumors formed in the liver (MHCC97L cells): 7 of 7
